The text below walks through data of publication PMC11096368, “Transcriptomic signature, bioactivity and safety of a non-hepatotoxic analgesic generating AM404 in the midbrain PAG region” (Scientific Reports, 2024).

This series can be described thus: LC–MS/MS detection of D10-SRP-001 and AM404 in the periaqueductal gray (PAG). The following applies: 30 min after IP injection, LC/MS–MS. Format: in vivo, rats. On the procedure: Next, we sought to define the uptake of SRP-001 in the nociception area of the brain, the midbrain’s periaqueductal (PAG) area[42],[43]. Thirty min following ip-SRP-001 administration (32 mg/kg), the PAG was harvested and analyzed by LC/MS–MS. D10-SRP-001 was used to match the fragmentation pattern while monitoring analytes.
Deuterated compound D10-SRP-001 was synthesized by Olon Ricerca Bioscience (Concord, OH), and purity was determined to be > 99.9% by HPLC. This was used as pure analytical standard for detection of SRP-001 using an LC–MS/MS method. Similarly, pure analytical standard of AM404 (10 ng/mL) obtained from Cayman Chemical (Ann Arbor, MI) was used to characterize the full fragmentation pattern of AM404. […] Thirty min post-injection, the animals were sacrificed (same as in the CFA/von Frey model), their brains harvested, and the midbrain periaqueductal gray (PAG) region excised. SRP-001 or AM404 were extracted from the PAG using a liquid–liquid extraction method using 1:1 MeOH:H2O for LC–MS/MS and were loaded onto a liquid chromatography-tandem mass spectrophotometer for analysis. The mass spectrophotometer was operated in multiple reaction monitoring (MRM) mode using positive ion electrospray. D10-SRP-001 was detected by monitoring the m/z transition 416 → 186. AM404 was detected by monitoring the m/z transition 396 → 287.

As to `[2H]C([2H])([2H])C([2H])([2H])N(C(=O)c1ccccc1S(=O)(=O)NCC(=O)Nc1ccc(O)cc1)C([2H])([2H])C([2H])([2H])[2H]` [D10-SRP-001], the “Detection in rat brain” value is on record as “detected in the brain”.
